Data: ChEMBL document CHEMBL1155750, “Four new coumarin derivatives from Artemisia keiskeana” (J Nat Prod, 2001)
Converted amounts (≈) assume the structure as drawn.

Key:
[1] = Toxicity in brine shrimp; format: organism-based; settings: artemia, in vivo
Artemia = test: Toxicity in brine shrimp at 100 ug/mL; format: organism-based; settings: in vivo

Row | SMILES | LC50 [1] | Activity (Artemia)
1 | COc1cc2ccc(=O)oc2cc1OC/C=C(\C)CC/C=C(\C)CO [ARTEKEISKEANOL A] | 60 µg/mL (≈ 174 µM) | –
2 | COc1cc2ccc(=O)oc2cc1OC/C=C(\C)CC/C=C(/C)CO [ARTEKEISKEANOL B] | 70 µg/mL (≈ 203 µM) | –
3 | COc1cc2ccc(=O)oc2c(OC)c1OC/C=C(\C)CC/C=C(\C)CO [ARTEKEISKEANOL C] | – | Non-toxic
4 | COc1cc2ccc(=O)oc2c(OC)c1OC/C=C(\C)CC/C=C(/C)CO [ARTEKEISKEANOL D] | – | Non-toxic
